As a reminder, the IC50 is the concentration that inhibits the measured activity by half. Low readings indicate higher potency, high ones lower potency.

Each structure is given as a SMILES string.

Consider four compounds from BindingDB's records for doi:10.1016/j.bmc.2010.01.055 (Chinese Academy of Sciences, 2010).

For this assay, the target named is Receptor-type tyrosine-protein phosphatase alpha (PTPRA) (Homo sapiens) (UniProt P18433). The experiment in a line: Inhibition of PTPalpha expressed in Escherichia coli BL21 (DE3) after 10 mins by spectrophotometry.
Sequence of Receptor-type tyrosine-protein phosphatase alpha (PTPRA) (Homo sapiens) (P18433 whole entry, looked up): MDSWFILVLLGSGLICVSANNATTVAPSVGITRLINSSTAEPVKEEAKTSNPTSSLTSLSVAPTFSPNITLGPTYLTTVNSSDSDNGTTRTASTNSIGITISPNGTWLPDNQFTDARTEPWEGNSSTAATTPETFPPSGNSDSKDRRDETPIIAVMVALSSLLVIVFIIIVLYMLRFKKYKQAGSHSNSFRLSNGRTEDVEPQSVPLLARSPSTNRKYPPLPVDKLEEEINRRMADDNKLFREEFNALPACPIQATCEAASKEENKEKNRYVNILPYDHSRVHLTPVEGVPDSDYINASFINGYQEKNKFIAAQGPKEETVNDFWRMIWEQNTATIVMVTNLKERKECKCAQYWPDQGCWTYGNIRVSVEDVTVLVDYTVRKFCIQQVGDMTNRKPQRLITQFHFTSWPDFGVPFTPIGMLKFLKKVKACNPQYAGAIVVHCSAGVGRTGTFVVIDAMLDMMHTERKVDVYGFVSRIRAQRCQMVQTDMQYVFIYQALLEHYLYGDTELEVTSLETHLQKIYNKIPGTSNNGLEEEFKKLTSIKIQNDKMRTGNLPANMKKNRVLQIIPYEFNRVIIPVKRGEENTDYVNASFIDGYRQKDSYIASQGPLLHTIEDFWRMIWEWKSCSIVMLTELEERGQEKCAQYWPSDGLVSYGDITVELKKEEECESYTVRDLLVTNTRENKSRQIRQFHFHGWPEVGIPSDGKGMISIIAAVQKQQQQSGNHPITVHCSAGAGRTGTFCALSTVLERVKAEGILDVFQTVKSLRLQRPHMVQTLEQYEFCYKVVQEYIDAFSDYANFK
Turning to `CCOC(=O)c1c(-c2ccc(-c3ccc(F)c(Cl)c3)cc2)csc1NC(=O)c1ccccc1C(=O)O` [2-(2-Carboxy-benzoylamino)-4-(30-chloro-40-fluorobiphenyl-4-yl)-thiophene-3-carboxylic acid ethyl ester], the IC50 worked out at 23.1 µM.
Regarding `CC(C)OC(=O)c1c(-c2ccc(-c3ccc(Cl)cc3)cc2)csc1NC(=O)C1C2C=CC(C2)C1C(=O)O` (centres undefined) [2-[(3-Carboxy-bicyclo[2.2.1]hept-5-ene-2-carbonyl)-amino]-4-(4'-chloro-biphenyl-4-yl)-thiophene-3-carboxylicacid isopropyl ester], the half-inhibitory concentration (IC50) was greater than 100 µM.
`CCc1oc2cc(S(=O)(=O)Nc3nccs3)ccc2c1C(=O)c1cc(Br)c(O)c(Br)c1` [3-(3,5-dibromo-4-hydroxybenzoyl)-2-ethyl-N-(thiazol-2-yl)benzofuran-6-sulfonamide]: the IC50 is greater than 100 µM.
`CC(C)OC(=O)c1c(-c2ccc(-c3ccccc3)cc2)csc1NC(=O)C1C2C=CC(C2)C1C(=O)O` (centres undefined) [4-Biphenyl-4-yl-2-[(3-carboxy-bicyclo[2.2.1]hept-5-ene-2-carbonyl)-amino]-thiophene-3-carboxylic acid isopropylester] gave a half-maximal inhibitory concentration (IC50) greater than 100 µM.
